Results: patent publication US11364211B2, “Methods for selecting phosphatase selective and non-selective phosphatase inhibitors” (MEDICAL RESEARCH COUNCIL, priority 2015, dated 2022)
Entries after “also recorded” stand apart in the source; their conditions may differ.

Legend:
[1] = test system: eIF2α phosphorylation in MEFs; experiment: eIF2α phosphorylation in r15a mut/mut or r15b mut/mut MEFs (immunoblot); type: cell-based, mouse
Protocol: (§1) HeLa cells were maintained in Dulbecco's Modified Eagle's Media (DMEM) supplemented with penicillin, streptomycin, glutamine and 10% fetal bovine serum (FBS). Ppp1r15a −/− and Ppp1r15b −/− MEF cells were maintained in DMEM supplemented with penicillin, streptomycin, glutamine, 55 μM β-mercaptoethanol, 1X non-essential amino acids (Sigma) and 10% FBS.
(§2) Cells (90,000 cells/ml) were plated in a 24-well plate and treated as indicated. At the end of treatment cells were lysed in 150 μl Laemmli Buffer. Lysates were boiled at 95° C. for 5 minutes, sonicated and resolved on 4-12% Bolt Bis-Tris Plus Gels (Thermo Fisher Scientific). Proteins were transferred to the nitrocellulose membrane using the iBlot 2 system (Thermo Fisher Scientific) and analysed using the following antibodies: e-IF2α-P (44-728G, Thermo Fisher Scientific, 1:1000), e-IF2α (ab5369, Abcam, 1:1000), tubulin (T5168, Sigma-Aldrich, 1:4000), BiP (610978, BD Biosciences Pharmingen, 1:1000), ATF4 (sc-200, Santa Cruz Biotechnology, 1:500), Ppp1r15a (10449-1-AP, Proteintech, 1:1000) and Ppp1r15b (14634-1-AP, Proteintech, 1:1000). Proteins were visualized using ECL Prime (GE Healthcare).

db/db mice = experiment: Blood glucose in obese db/db mice; type: in vivo, mouse; settings: 1 mg/kg once a day for three weeks
Protocol: For treatment of a metabolic disorder, Db/db animals (n=5 per condition) were treated once a day with 1 mg/kg of compound of Example 1 for three weeks. Blood glucose levels were measured with a blood glucose meter (DSI) between 9 and 10 am. Data are mean +/− S.e.m.

PPP1R15A = experiment: Induction of PPP1R15A expression in cells (immunoblot); type: cell-based, human; settings: absence of stress
Protocol: For immunoblots, HeLa cells (80,000 cells/ml) were plated in 12-well plates 24 hours before each experiment. Immediately after the indicated treatments, cells were lysed in 75 μl Laemmli Buffer, boiled at 95° C. for 5 minutes and sonicated. Proteins were separated and analysed as described (Tsaytler et al., Science, 332, 91-94, 2011) with the following antibodies: phospho-elf2α [pS52] and PPP1R15A/GADD34 (10449-1-AP; ProteinTech Group, 1/1000 dilution).
as §2

ATF4 = experiment: Induction of ATF4 expression in cells (immunoblot); type: cell-based, human; settings: HeLa cells, 10 μM
Protocol: as §2

MEFs = experiment: Translation rates by 35S-methionine labelling in r15a mut/mut or r15b mut/mut MEFs; type: cell-based, mouse
Protocol: as §1
Cells (90,000 cells/ml) were plated in 12-well plates, treated as indicated, labelled with 100 μCi/ml ^35S-methionine (Hartmann Analytic) for 10 minutes at 37° C., washed with ice-cold PBS and lysed in 120 μl Laemmli Buffer. Lysates were boiled at 95° C. for 5 minutes, sonicated and resolved on 4-12% Bolt Bis-Tris Plus Gels (Thermo Fisher Scientific). Gels were then stained with InstantBlue (Expedeon) and analyzed by phosphorimaging.

R15A [2] = biological target: T1, R15A (Homo sapiens, UniProt O75807); experiment: SPR of recombinant R15A binding to immobilized bio-GBZ; settings: isolated R15A fragment, compound immobilized on chip
T1 construct: the cDNAs encoding amino acids 325-636 of PPP1R15A; MBP (N); His (C); made in house; host or cells: E. coli BL21-Gold
T1 sequence (O75807 325-636, stated change not applied): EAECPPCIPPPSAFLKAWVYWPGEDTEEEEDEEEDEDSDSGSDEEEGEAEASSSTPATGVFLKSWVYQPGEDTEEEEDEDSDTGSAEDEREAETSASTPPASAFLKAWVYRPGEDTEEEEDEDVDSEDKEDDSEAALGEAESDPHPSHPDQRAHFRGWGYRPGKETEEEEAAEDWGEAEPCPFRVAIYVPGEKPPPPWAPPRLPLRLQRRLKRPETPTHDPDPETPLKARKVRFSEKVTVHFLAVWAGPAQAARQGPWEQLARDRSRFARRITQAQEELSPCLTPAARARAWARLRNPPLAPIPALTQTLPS
Protocol: (§3) B. SPR sensorgrams of R15A and R15B binding to bio-GBZ immobilized on the SPR sensor chip surface. R15A/B concentration=0.0244-12.5 μM.
(§4) Here we set out to develop a generalizable strategy to identify new selective phosphatase inhibitors. First, we expressed and purified R15A and R15 B (FIG. 12) and used surface plasmon resonance (SPR) to measure binding affinities of known R15A inhibitors to their targets. We tried to immobilized R15 on SPR chip but this method produced inconsistent results, probably because the natively unstructured proteins precipitate on the chip. We therefore used biotynilated guanabenz (GBZ) (7) that we immobilized on the chip and tested binding of the proteins on the immobilized compound (FIGS. 13A and 13B).
(§5) A Biacore T200 (GE Healthcare) system was used for all experiments and biotinylated GBZ (bio-GBZ) (Tsaylter 2011) or bio-PP1 was captured on a Sensor Chip SA (GE Healthcare). […]

R15A [3] = experiment: as above; design: species or system human; settings: immobilized biotinylated GBZ
Protocol: as §3, §4, §5

PP1c = PP1c (Homo sapiens, UniProt P36873); experiment: SPR binding to PP1c alone immobilized on chip
Sequence of PP1c (P36873 whole entry): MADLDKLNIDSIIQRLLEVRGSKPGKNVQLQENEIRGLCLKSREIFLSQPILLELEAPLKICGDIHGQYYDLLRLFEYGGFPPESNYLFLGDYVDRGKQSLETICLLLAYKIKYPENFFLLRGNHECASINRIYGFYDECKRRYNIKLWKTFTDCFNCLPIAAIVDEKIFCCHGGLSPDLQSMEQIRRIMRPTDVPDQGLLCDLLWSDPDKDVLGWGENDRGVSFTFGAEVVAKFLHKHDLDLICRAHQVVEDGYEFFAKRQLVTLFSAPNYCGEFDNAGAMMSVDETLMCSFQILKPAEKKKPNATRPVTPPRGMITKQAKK
Protocol: The streptavidin coated surface was activated by 1 minute injection with a solution of 50 mM NaOH and 1 M NaCl three times at a flow rate of 10 μl/min. bio-GBZ or bio-PP1c was diluted in the running buffer (50 mM Tris pH 7.5, 100 mM NaCl, 0.1 mM EGTA, 0.05% Tween 20, 0.1% DMSO) and injected at approximately 300 nM concentration at a flow rate of 10 μl/min directly to streptavidin coated surface to reach immobilization level of bio-GBZ or bio-PP1c corresponding to ˜200 and 6000 RU, respectively. A blank immobilization was performed for one of the SA sensor chip surface to use as a reference.
With minor deviations, the same procedure and conditions were used in all binding experiments. Small molecules were stored as 50 mM stock solutions in 100% DMSO. Prior to determining binding constants, serial dilutions of either 12 or 8 concentrations of the compounds were prepared in the running buffer in a 96-well plate. […] This was followed by 1 minute stabilization period, to wash off any unspecific binding. Then, without regenerating the surface, the compound dilution series was injected onto the surface of the chip at a flow rate of 30 μl/min for 1 minute, followed by 2 minutes dissociation time. […]
Kinetic experiments are carried out using different concentrations of the compound and their respective equilibrium binding levels determined.

Row | Structure (SMILES) | eIF2α phosphorylation upon inactivation of R15A ([1]; r15a mut/mut MEFs) | effect on eIF2α phosphorylation in r15b knock out cells ([1]; r15b mut/mut MEFs, 10 μM, listed as TST3) | blood glucose (db/db mice) | expression of PPP1R15A (R15A) in cells (PPP1R15A) | expression of PPP1R15A (R15A) in cells (PPP1R15A; listed as TST3) | expression of ATF4 in cells (ATF4) | translation attenuation upon inactivation of R15A (MEFs) | Kd (R15A [2]) | affinity for recombinant R15A fragment relative to R15B (R15A [3]) | binding to PP1c alone (in words) (PP1c)
1 | [H]/N=C(\N)NN=Cc1cccc(Cl)c1Cl [Example 1, (E)-2-(2,3-dichlorobenzylidene)hydrazine-1-carboximidamide] | rendered persistent | activity is abolished | ameliorate a metabolic disorder; also recorded: reduced the pathological high blood glucose | induce PPP1R15A; also recorded: induces expression of R15A | induced expression | induced expression | rendered persistent |  |  | 
2 | N=C(N)N/N=C/c1c(Cl)cccc1Cl [Guanabenz, reference compound] |  |  |  |  |  |  |  | 11 µM | ten times higher affinity | not to PP1c alone
